According to PMC9837035 (Nature Communications, 2023):
Values joined by “and” are separate entries in the source; they are usually repeats but may differ in a detail not shown here. Identical values can stand only once.

How the values were obtained:
[1] = system: mice; test: Mouse acute toxicity assay, survival; type: in vivo; conditions: intravenous, 2-week observation
Description: All animal studies were approved by the Institutional Committee for Animal Experiments of the Institute of Microbial Chemistry, and were performed in accordance with relevant guidelines and regulations to minimize animal suffering. Four-week-old female ICR mice were purchased from Charles River Breeding Laboratories (Yokohama, Japan) and maintained in a specific pathogen-free barrier facility. […] Samples were dissolved in saline containing 10% DMSO and 1% Tween 80 and injected intravenously into mice.

[2] = system: H3K9me2 in HUDEP-2 cells; test: Western blotting of H3K9me2 in HUDEP-2 cells; type: cell-based, human; conditions: HUDEP-2, 4 days
Description: Preparation of cell lysates and western blotting were performed as described previously. Protein from cells lysates in lysis buffer (50 mM Tris-HCl (pH 7.5), 150 mM NaCl, 5 mM EDTA, 0.1% NP-40, 1 mM dithiothreitol) were separated by sodium dodecyl sulfate–polyacrylamide gel electrophoresis (SDS-PAGE) and transferred to a polyvinylidene difluoride (PVDF) membrane (Millipore) by electroblotting. The membranes incubated with primary antibodies overnight at 4 °C and secondary antibodies for 1 h at room temperature. The immune complexes were detected with the Immobilon Western Chemiluminescent HRP Substrate (Millipore). Luminescence was analyzed on a FUSION SOLO S (Vilber). Western blot bands were visualized using Evolution Capt software (M&S Instruments Inc.). Primary antibodies used were anti-G9a (1:1000, CST, #3306), anti–α-tubulin (1:5000, Abcam, ab18251), anti-H3K9me2 (1:3000, Abcam, ab1220), anti-H3 (1:5000, Abcam, ab1791), anti-H3K27me3 (1:3000, Sigma, 07-449), anti-GLP (1:1000, CST, #35005), anti-FLAG (100 ng/ml, Fujifilm, 01422383), anti-His (1:5000, MBL, PM032), anti-BCL11A (1:1000, abcam, ab19487), anti-ZBTB7A (1:1000, CST, #50565), anti-CHD3 (1:1000, Novus Biologicals, NB100-60412), and anti-CHD4 (1:1000, abcam, ab240640). Uncropped scans of all of the blots are available in Source Data file.

[3] = Cell viability assay (WST-8), HUDEP-2; type: cell-based, human; conditions: human, HUDEP-2 cells, control (0 μM) = 100
Description: (§1) A WST-8 (2-(2-methoxy-4-nitrophenyl)-3-(4-nitrophenyl)-5-(2,4-disulfophenyl)-2H-tetrazolium) assay using a Cell Counting Kit-8 (DOJINDO) was performed to measure cell viability using an EnSpire microplate reader (PerkinElmer).

[4] = system: HUDEP-2 cells; test: Cell viability assay (WST-8), HUDEP-2; type: cell-based, human; conditions: for cell viability in HUDEP-2 cells: control (0 μM) = 100
Description: as §1

[5] = system: rat myoblast cell line H9c2; test: Cell viability assay (WST-8), H9c2; type: cell-based; conditions: control (0 μM) = 100
Description: as §1

[6] = Cell viability assay (WST-8), H9c2; type: cell-based, rat; conditions: rat, H9c2 myoblast cells, control (0 μM) = 100
Description: as §1

[7] = system: BGLT3 RNA in HUDEP-2 cells; test: RT-qPCR of BGLT3 in HUDEP-2 cells; type: cell-based, human; conditions: for BGLT3 expression in HUDEP-2 cells: relative to DMSO = 1, replicate values
Outline: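 Total RNA reverse-transcribed to cDNA, then target transcripts quantified by SYBR Green real-time qPCR. Expression normalized to GAPDH as reference gene.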

[8] = system: β- and γ-globin genes in HUDEP-2 cells; test: RT-qPCR of β- and γ-globin in HUDEP-2 cells; type: cell-based, human; conditions: for β-globin expression in HUDEP-2 cells / γ-globin expression in HUDEP-2 cells: relative to DMSO = 1, replicate values
Description: Total cellular RNA was prepared using the Tissue Total RNA Mini Kit (FAVORGEN), and cDNA was synthesized using ReverTra Ace Master Mix (TOYOBO). Expression of target genes was analyzed using THUNDERBIRD SYBR qPCR Mix (TOYOBO) on a CFX Connect Real Time System (Bio-Rad). The qPCR data were acquired on CFX Maestro (Bio-Rad). Primers are listed in Supplementary Table 10. GAPDH was used as a reference. Primers were purchased from INTEGRATED DNA TECHNOLOGIES or FASMAC.

Structure (SMILES): COc1cc2c(NC3CCN(C(C)C)CC3)nc(C3CCCCC3)nc2cc1OCCCN1CCCC1 [UNC0638]
- Number of alive mice ([1]; 1.5625 mg/kg): 3/3
- Number of alive mice ([1]; 3.125 mg/kg): 3/3
- Number of alive mice ([1]; 6.25 mg/kg): 0/3
- Number of alive mice ([1]; 12.5 mg/kg): 0/3
- Number of alive mice ([1]; 25 mg/kg): 0/3
- cellular H3K9me2 levels [2]: reduction of H3K9me2 levels
- viability at 0.00457247 μM ([3]; 0.00457247 μM): 97.7%
- viability at 0.0137174 μM ([3]; 0.0137174 μM): 96.8%
- viability at 0.0411523 μM ([3]; 0.0411523 μM): 103%
- viability at 0.123457 μM ([3]; 0.123457 μM): 98.7%
- viability at 0.37037 μM ([3]; 0.37037 μM): 83.3%
- viability at 1.11111 μM ([3]; 1.11111 μM): 36%
- viability at 10 μM ([3]; 10 μM): 2.19%
- cell viability in HUDEP-2 cells ([4]; 0.00457247 μM): 93.1765 and 99.8296
- cell viability in HUDEP-2 cells ([4]; 0.0137174 μM): 92.549 and 98.1261
- cell viability in HUDEP-2 cells ([4]; 0.0411523 μM): 91.9216 and 96.0818
- cell viability in HUDEP-2 cells ([4]; 0.123457 μM): 90.9804 and 93.0153
- cell viability in HUDEP-2 cells ([4]; 0.37037 μM): 82.1961 and 79.7274
- cell viability in HUDEP-2 cells ([4]; 1.11111 μM): 35.1373 and 35.4344
- cell viability in HUDEP-2 cells ([4]; 10 μM): 4.078 and 3.407
- cytotoxic effect on viability ([4]; HUDEP-2, 3 days): severe cell toxicity
- cell viability in H9c2 cells ([5]; 0.039 μM): 83.333 and 114.948 and 83.569
- cell viability in H9c2 cells ([5]; 0.156 μM): 95.490 and 88.952
- cell viability in H9c2 cells ([5]; 0.625 μM): 87.887 and 83.853
- viability at 0.156 μM ([6]; 0.156 μM): 90.4%
- viability at 0.625 μM ([6]; 0.625 μM): 92.4%
- BGLT3 expression in HUDEP-2 cells ([7]; 0.01 μM): 1.173 and 1.9605 and 1.436
- BGLT3 expression in HUDEP-2 cells ([7]; 0.03 μM): 1.045 and 1.983 and 1.934
- BGLT3 expression in HUDEP-2 cells ([7]; 0.1 μM): 1.162 and 3.201 and 2.863
- BGLT3 expression in HUDEP-2 cells ([7]; 0.3 μM): 3.578 and 5.267 and 5.078
- BGLT3 expression ([7]; HUDEP-2): induced the expression of both BGLT3 and γ-globin
- β-globin expression in HUDEP-2 cells ([8]; 0.01 μM): 1.0792 and 0.9641 and 1.119
- γ-globin expression in HUDEP-2 cells ([8]; 0.01 μM): 2.161 and 1.8663 and 1.942
- β-globin expression in HUDEP-2 cells ([8]; 0.03 μM): 0.8727 and 0.8955 and 0.9796
- γ-globin expression in HUDEP-2 cells ([8]; 0.03 μM): 2.931 and 2.632 and 2.938
- β-globin expression in HUDEP-2 cells ([8]; 0.1 μM): 0.7919 and 0.6648 and 0.9576
- γ-globin expression in HUDEP-2 cells ([8]; 0.1 μM): 3.187 and 2.85 and 3.299
- β-globin expression in HUDEP-2 cells ([8]; 0.3 μM): 0.6454 and 0.4522 and 0.612
- γ-globin expression in HUDEP-2 cells ([8]; 0.3 μM): 4.136 and 2.987 and 3.803
- γ-globin mRNA level ([8]; HUDEP-2): induced the expression of both BGLT3 and γ-globin
